The test addresses T1, FAAH (Rattus norvegicus, UniProt P97612).
T1 construct: Preparation of Rat Brain Membranes Preparations (FAAH Enzyme Solution); from tissue; host or cells: rat cerebrum (brain membrane preparation)
T1 sequence (P97612 1-579): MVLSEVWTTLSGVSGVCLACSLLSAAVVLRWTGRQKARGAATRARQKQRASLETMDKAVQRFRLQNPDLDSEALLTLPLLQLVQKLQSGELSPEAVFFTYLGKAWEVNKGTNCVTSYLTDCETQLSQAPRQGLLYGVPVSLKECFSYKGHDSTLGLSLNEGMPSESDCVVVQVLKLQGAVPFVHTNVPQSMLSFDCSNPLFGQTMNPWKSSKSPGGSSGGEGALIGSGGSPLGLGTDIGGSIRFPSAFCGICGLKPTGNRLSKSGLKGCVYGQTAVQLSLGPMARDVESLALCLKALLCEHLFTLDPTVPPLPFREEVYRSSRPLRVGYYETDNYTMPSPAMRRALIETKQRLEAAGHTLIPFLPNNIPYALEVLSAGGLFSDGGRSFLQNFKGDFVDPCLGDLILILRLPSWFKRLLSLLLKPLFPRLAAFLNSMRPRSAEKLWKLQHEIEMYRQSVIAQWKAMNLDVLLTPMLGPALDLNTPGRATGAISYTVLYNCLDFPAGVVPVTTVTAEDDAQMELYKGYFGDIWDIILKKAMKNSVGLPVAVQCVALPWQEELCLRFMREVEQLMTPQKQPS
In words: Determination of FAAH inhibitory activity in rat (rat brain membrane preparations, [3H]-anandamide hydrolysis). The class given is biochemical. Conditions: rat brain membrane preparations; for inhibition at 0.1 µM: 100 nM test substance, read-out: FAAH Inhibition, Inhibition Rate at 100 nM; for IC50: test substance 0.1 nM to 1 μM, read-out: FAAH Inhibition IC50. The gist of the method:
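Rat cerebrum membranes (100 μg/mL protein) preincubated 10 min at 37 °C with compound (1% DMSO) in pH 7.6 Tris buffer with 1.5% BSA. Substrate 2 nM [3H]-anandamide plus 2 μM anandamide added for 10 min at 37 °C. [3H]-ethanolamine in the aqueous phase after chloroform/methanol extraction was scintillation counted; IC50 over 0.1 nM–1 μM.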

Molecules are shown by their SMILES.

On to `Cn1c(=O)n(C(=O)N2CCCC2)c2cnc(-c3cccc(OCc4ccccc4)c3)nc21` [Example 202, 2-(3-benzyloxyphenyl)-9-methyl-7-(pyrrolidin-1-ylcarbonyl)-7,9-dihydro-8H-purine-8-one], for which the inhibition (as a rule, the drop in the measured response relative to a control, in per cent) at 0.1 µM was determined as 53% and the half-inhibitory concentration (IC50) (as a rule, the concentration that inhibits the measured activity by half) was 95 nM.

In the case of `Cn1c(=O)n(C(=O)N2CCCC2)c2cnc(-c3cccc([N+](=O)[O-])c3)nc21` [Example 203, 2-(3-nitrophenyl)-9-methyl-7-(pyrrolidin-1-ylcarbonyl)-7,9-dihydro-8H-purine-8-one], the inhibition at 0.1 µM came to 98% and the IC50 worked out at 24 nM.

For `Cn1c(=O)n(C(=O)N2CCCC2)c2cnc(-c3cccnc3)nc21` [Example 205, 9-Methyl-2-(pyridin-3-yl)-7-(pyrrolidin-1-ylcarbonyl)-7,9-dihydro-8H-purine-8-one], the inhibition at 0.1 µM came to 98% and the IC50 was found to be 5 nM.

For `COc1ccc(-c2ncc3c(n2)n(C)c(=O)n3C(=O)N2CCCC2)cn1` [Example 206, 2-(6-Methoxypyridin-3-yl)-9-methyl-7-(pyrrolidin-1-ylcarbonyl)-7,9-dihydro-8H-purine-8-one], the inhibition at 0.1 µM is 98% and the 50% inhibitory concentration (IC50) was 4 nM.

Consider `Cn1c(=O)n(C(=O)N2CCCC2)c2cnc(-c3ccc(F)nc3)nc21` [Example 207, 2-(6-Fluoropyridine-3-yl)-9-methyl-7-(pyrrolidin-1-ylcarbonyl)-7,9-dihydro-8H-purine-8-one], for which the inhibition at 0.1 µM was determined as 99% and the concentration for half-maximal inhibition (IC50) was 6 nM.

As to `Cn1c(=O)n(C(=O)N2CCCC2)c2cnc(-c3ccncc3)nc21` [Example 213, 9-Methyl-2-(pyridin-4-yl)-7-(pyrrolidin-1-ylcarbonyl)-7,9-dihydro-8H-purine-8-one], the inhibition at 0.1 µM stood at 100% and the half-maximal inhibitory concentration (IC50) was determined as 5 nM.

Take `Cn1c(=O)n(C(=O)N2CCCC2)c2cnc(-c3ccnc(Cl)c3)nc21` [Example 214, 2-(2-Chloropyridin-4-yl)-9-methyl-7-(pyrrolidin-1-ylcarbonyl)-7,9-dihydro-8H-purine-8-one]: the inhibition at 0.1 µM was 99% and the IC50 is 18 nM.

In the case of `Cn1c(=O)n(C(=O)N2CCCC2)c2cnc(-c3ccnc(F)c3)nc21` [Example 215, 2-(2-Fluoropyridin-4-yl)-9-methyl-7-(pyrrolidin-1-ylcarbonyl)-7,9-dihydro-8H-purine-8-one], the inhibition at 0.1 µM was 98% and the half-maximal inhibitory concentration (IC50) came to 10 nM.

As to `Cn1c(=O)n(C(=O)N2CCCC2)c2cnc(-c3cc4ccccc4o3)nc21` [Example 216], the inhibition at 0.1 µM turned out to be 99% and the IC50 amounted to 7 nM.

On to `C/C=C/c1ncc2c(n1)n(C)c(=O)n2C(=O)N1CCCC1` [Example 217], for which the inhibition at 0.1 µM was 99% and the IC50 stood at 27 nM.

As for `Cn1c(=O)n(C(=O)N2CCCC2)c2cnc(C3=CCCCC3)nc21` [Example 218, 2-(cyclohexen-1-yl)-9-methyl-7-(pyrrolidin-1-ylcarbonyl)-7,9-dihydro-8H-purine-8-one], the inhibition at 0.1 µM was found to be 95% and the IC50 came to 25 nM.

In the case of `CCN(C)C(=O)n1c(=O)n(C)c2nc(-c3cccnc3)ncc21` [Example 219, N-Ethyl-N,9-dimethyl-8-oxo-2-(pyridin-3-yl)-8,9-dihydro-7H-purine-7-carboxamide], the inhibition at 0.1 µM was determined as 96% and the half-maximal inhibitory concentration (IC50) was found to be 9 nM.

With `CCN(C)C(=O)n1c(=O)n(C)c2nc(-c3ccncc3)ncc21` [Example 220, N-Ethyl-N,9-dimethyl-8-oxo-2-(pyridin-4-yl)-8,9-dihydro-7H-purine-7-carboxamide], the inhibition at 0.1 µM is 105% and the IC50 came out at 7 nM.

With `CCN(C)C(=O)n1c(=O)n(C)c2nc(-c3ccnc(F)c3)ncc21` [Example 221, N-Ethyl-2-(2-fluoropyridin-4-yl)-N,9-dimethyl-8-oxo-8,9-dihydro-7H-purine-7-carboxamide], the inhibition at 0.1 µM worked out at 100% and the IC50 stood at 4 nM.

As to `CN(CCc1ccc(Cl)cc1)C(=O)n1c(=O)n(C)c2nc(-c3ccnc(F)c3)ncc21` [Example 222, N-[2-(4-Chlorophenyl)ethyl]-2-(2-fluoropyridin-4-yl)-N,9-dimethyl-8-oxo-8,9-dihydro-7H-purine-7-carboxamide], the inhibition at 0.1 µM amounted to 99% and the concentration for half-maximal inhibition (IC50) was under 1 nM.

As for `CN(CCC1CCCCC1)C(=O)n1c(=O)n(C)c2nc(-c3ccncc3)ncc21` [Example 223, N-(2-Cyclohexylethyl)-N,9-dimethyl-8-oxo-2-(pyridin-4-yl)-8,9-dihydro-7H-purine-7-carboxamide], the inhibition at 0.1 µM was 105% and the half-maximal inhibitory concentration (IC50) was under 1 nM.

In the case of `Cn1c(=O)n(C(=O)N2CCCC2)c2nc(-c3ccccc3)ncc21` [Example 224, 7-Methyl-2-phenyl-9-(pyrrolidin-1-ylcarbonyl)-7,9-dihydro-8H-purine-8-one], the inhibition at 0.1 µM was 91% and the IC50 was 53 nM.

As to `Cn1c(=O)n(C(=O)N2CCCC2)c2nc(-c3cccc(F)c3)ncc21` [Example 226, 2-(3-Fluorophenyl)-7-methyl-9-(pyrrolidin-1-ylcarbonyl)-7,9-dihydro-8H-purine-8-one], the inhibition at 0.1 µM was found to be 99% and the IC50 came to 27 nM.

Consider `Cn1c(=O)n(C(=O)N2CCCC2)c2nc(-c3ccc(F)cc3)ncc21` [Example 227, 2-(4-Fluorophenyl)-7-methyl-9-(pyrrolidin-1-ylcarbonyl)-7,9-dihydro-8H-purine-8-one], for which the inhibition at 0.1 µM is 97% and the concentration for half-maximal inhibition (IC50) amounted to 34 nM.

As to `Cc1cccc(-c2ncc3c(n2)n(C(=O)N2CCCC2)c(=O)n3C)c1` [Example 228, 7-Methyl-2-(3-methylphenyl)-9-(pyrrolidin-1-ylcarbonyl)-7,9-dihydro-8H-purine-8-one], the inhibition at 0.1 µM came to 99% and the half-maximal inhibitory concentration (IC50) is 31 nM.

Take `Cc1ccc(-c2ncc3c(n2)n(C(=O)N2CCCC2)c(=O)n3C)cc1` [Example 229, 7-Methyl-2-(4-methylphenyl)-9-(pyrrolidin-1-ylcarbonyl)-7,9-dihydro-8H-purine-8-one]: the inhibition at 0.1 µM came to 90% and the 50% inhibitory concentration (IC50) turned out to be 53 nM.

On to `COc1cccc(-c2ncc3c(n2)n(C(=O)N2CCCC2)c(=O)n3C)c1` [Example 230, 2-(3-Methoxyphenyl)-7-methyl-9-(pyrrolidin-1-ylcarbonyl)-7,9-dihydro-8H-purine-8-one], for which the inhibition at 0.1 µM was 94% and the 50% inhibitory concentration (IC50) is 44 nM.

With `COc1ccc(-c2ncc3c(n2)n(C(=O)N2CCCC2)c(=O)n3C)cc1` [Example 231, 2-(4-Methoxyphenyl)-7-methyl-9-(pyrrolidin-1-ylcarbonyl)-7,9-dihydro-8H-purine-8-one], the inhibition at 0.1 µM amounted to 91% and the IC50 was found to be 51 nM.

Take `CCOc1cccc(-c2ncc3c(n2)n(C(=O)N2CCCC2)c(=O)n3C)c1` [Example 232, 2-(3-ethoxyphenyl)-7-methyl-9-(pyrrolidin-1-ylcarbonyl)-7,9-dihydro-8H-purine-8-one]: the inhibition at 0.1 µM came out at 101% and the IC50 came to 20 nM.

Regarding `CCOc1ccc(-c2ncc3c(n2)n(C(=O)N2CCCC2)c(=O)n3C)cc1` [Example 233, 2-(4-Ethoxyphenyl)-7-methyl-9-(pyrrolidin-1-ylcarbonyl)-7,9-dihydro-8H-purine-8-one], the inhibition at 0.1 µM amounted to 97% and the 50% inhibitory concentration (IC50) was found to be 40 nM.

In the case of `Cn1c(=O)n(C(=O)N2CCCC2)c2nc(-c3cccc(C(F)(F)F)c3)ncc21` [Example 234, 7-Methyl-9-(pyrrolidin-1-ylcarbonyl)-2-[3-(trifluoromethyl)phenyl]-7,9-dihydro-8H-purine-8-one], the inhibition at 0.1 µM was 100% and the 50% inhibitory concentration (IC50) was determined as 9 nM.

For the compound `Cn1c(=O)n(C(=O)N2CCCC2)c2nc(-c3ccc(C(F)(F)F)cc3)ncc21` [Example 235, 7-Methyl-9-(pyrrolidin-1-ylcarbonyl)-2-[4-(trifluoromethyl)phenyl]-7,9-dihydro-8H-purine-8-one], the inhibition at 0.1 µM was 98% and the half-inhibitory concentration (IC50) came to 39 nM.

As for `Cn1c(=O)n(C(=O)N2CCCC2)c2nc(-c3cccc(OC(F)(F)F)c3)ncc21` [Example 236, 7-Methyl-9-(pyrrolidin-1-ylcarbonyl)-2-[3-(trifluoromethoxy)phenyl]-7,9-dihydro-8H-purine-8-one], the inhibition at 0.1 µM is 100% and the IC50 came out at 6 nM.

Consider `Cn1c(=O)n(C(=O)N2CCCC2)c2nc(-c3ccc(OC(F)(F)F)cc3)ncc21` [Example 237, 7-Methyl-9-(pyrrolidin-1-ylcarbonyl)-2-[4-(trifluoromethoxy)phenyl]-7,9-dihydro-8H-purine-8-one], for which the inhibition at 0.1 µM amounted to 98% and the IC50 is 32 nM.
